Test results from BindingDB's records for doi:10.1021/jm201708h (Progen Pharmaceuticals, 2012).

Molecular target: T1, Heparanase (Homo sapiens, UniProt Q9Y251)
T1 sequence (Q9Y251 whole entry): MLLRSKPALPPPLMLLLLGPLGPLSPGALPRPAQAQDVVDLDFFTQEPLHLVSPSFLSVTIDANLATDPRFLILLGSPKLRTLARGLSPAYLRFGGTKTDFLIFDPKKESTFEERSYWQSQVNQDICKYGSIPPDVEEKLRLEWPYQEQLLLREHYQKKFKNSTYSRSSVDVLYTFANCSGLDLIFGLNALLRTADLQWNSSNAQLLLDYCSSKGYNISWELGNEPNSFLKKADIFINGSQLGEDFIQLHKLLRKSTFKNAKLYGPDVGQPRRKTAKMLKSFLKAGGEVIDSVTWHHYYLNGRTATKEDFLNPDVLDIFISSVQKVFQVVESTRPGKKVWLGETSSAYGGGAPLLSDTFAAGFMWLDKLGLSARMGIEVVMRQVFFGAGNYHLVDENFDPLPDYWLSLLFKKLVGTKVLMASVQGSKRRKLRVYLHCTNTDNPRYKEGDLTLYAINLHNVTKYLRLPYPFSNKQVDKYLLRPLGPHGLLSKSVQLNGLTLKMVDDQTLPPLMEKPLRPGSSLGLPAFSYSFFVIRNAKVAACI
Assay: Inhibition of human recombinant heparanase after 2 to 24 hrs by WST1 dye based fondaparinux assay

O=P(O)(O)OC[C@H]1O[C@H](O[C@@H]2[C@H](OS(=O)(=O)O)[C@@H](O[C@@H]3[C@H](OS(=O)(=O)O)[C@@H](O[C@@H]4[C@H](OS(=O)(=O)O)[C@@H](O[C@@H]5[C@@H](OS(=O)(=O)O)O[C@H](COS(=O)(=O)O)[C@@H](OS(=O)(=O)O)[C@@H]5OS(=O)(=O)O)O[C@H](COS(=O)(=O)O)[C@H]4OS(=O)(=O)O)O[C@H](COS(=O)(=O)O)[C@H]3OS(=O)(=O)O)O[C@H](COS(=O)(=O)O)[C@H]2OS(=O)(=O)O)[C@@H](OS(=O)(=O)O)[C@@H](OS(=O)(=O)O)[C@@H]1OS(=O)(=O)O [PI-88]
Ki: 7.9 nM
